The test system of this assay is normal human fibroblasts (NHDF 784). The assay is described as follows: Synthesis of collagen by human fibroblast cultures (radiolabelled proline incorporation). The assay is classed as cell-based. To be noted: 72 h incubation, 1/40 dilutions of stock preparations, vitamin C 20 μg/ml, FIG. 4. The procedure: The effect of a composition of the present invention (comprising two anti-glycosylation agents with magnesium ascorbyl phosphate) on the stimulation of the synthesis of collagen and the limitation of the formation of irreversible cross linkages between the collagen fibrils, were evaluated in vitro on human fibroblast cells. […] Glucose was tested in a final concentration of 0.1 percent, which is equivalent to doubling the quantity of 'cold' glucose of the medium. […] They contained free radioactivity and radioactivity incorporated in the soluble cellular and extracellular proteins. […] The proteins of the soluble fraction were then precipitated by 0.3 volume of 10 percent w/v trichloroacetic acid (TCA), and then washed twice with 3 percent TCA (removal of free radioactivity). […] Aliquots were taken to count the incorporated radioactivity in the proteins and a final precipitation was carried out with TCA to separate the material digested by collagenase (collagenic origin) from the collagenase-insensitive material. The incorporated radioactivity was counted by liquid scintillation after cumulation of the soluble/insoluble protein fractions, in an LKB 1211 Rackbeta counter.

SMILES strings stand for the structures.

In the case of `O=C1O[C@H]([C@@H](O)CO)C(O)=C1O` [vitamin C], the “synthesis of collagen (quantity of radiolabelled proline in the neosynthesized collagen)” value was “significantly increased”. With `O=C1O[C@H]([C@@H](O)CO)C([O-])=C1OP(=O)([O-])[O-].O=C1O[C@H]([C@@H](O)CO)C([O-])=C1OP(=O)([O-])[O-].[Mg+2].[Mg+2].[Mg+2]` [magnesium ascorbyl phosphate] the entry was “significantly increased”.

These data come from patent US20020025303A1, “COSMETIC AND/OR DERMATOLOGICAL COMPOSITION CONTAINING A DERIVATIVE OF METHYLATED SILANOL AND A DERIVATIVE OF HYDROLYSED PLANT PROTEIN” (priority 1997, published 2002).
